Source: patent publication US5312817A, “Treatment of fatigue syndrome” (priority 1991, dated 1994)
Where a name gives a salt, the structure may show the parent alone. Read-outs that look alike come from different tables or passages of the source.

Columns and labels:
[1] = tested on: persons suffering from Chronic Fatigue Syndrome; assay: Double-blind cross-over trial in Chronic Fatigue Syndrome: visual search task; assay type: in vivo, human
Text: (§1) 20 persons suffering from Chronic Fatigue Syndrome fulfilling the criteria described in example 4 or 5.
(§2) Each patient received treatment for a minimum of 8 weeks. The first 2 weeks incorporated an escalating schedule to stabilise the patient on an appropriate dose. The trial was running for eight weeks.
(§3) 11 of the persons were randomly allocated to galanthamine treatment, and the remaining 9 to placebo treatment. The protocol for the trial made provisions for the clinician to opt after two weeks of treatment for transfer to the alternative treatment.
(§4) The data available for the evaluation covered groups of patient-completed visual analogue scales to assess sleep disturbance, fatigue, myalgia, work capacity/satisfaction, and dizziness, together with time per response on a visual search task.

[2] = tested on: butyrylcholinesterase in plasma; conditions: after 10 mg i.v., healthy volunteer; cited from earlier work
[3] = tested on: persons suffering from Chronic Fatigue Syndrome; assay: Double-blind cross-over trial in Chronic Fatigue Syndrome: clinician's transfer to alternative treatment; assay type: in vivo, human; conditions: after two weeks of treatment; 9/9 on placebo; exact p=0.00006
Text: as §1, §2, §3

[4] = Side effects in treated patients; assay type: in vivo, human
Experimental: A complete elimination of metabolites and galanthamine takes place in 72 hours. […] The common side effects, other than the ones related to cholinergic crisis, are either nausea or vomiting, and a slight headache. However, these side effects are rare, especially when care is taken to start medication in low doses such as mentioned above.
Although galanthamine must be considered as having a high degree of safety, there have been certain side effects in a few of the patients treated. These have been slight nausea in about 30% of the cases (the nausea, however, disappearing after about one week of treatment), vomiting and dizziness in 5-10% of the patients (also disappearing after about one week of treatment in most cases), and more severe side effects in 4-6% of the patients. These more severe side effects must be considered acceptable in view of the effect of the drug; however, in patients who are suspected of developing arrhythmia, it should be considered to administer, e.g., atropine in combination with the treatment according to the invention.

[5] = tested on: acetylcholinesterase in the erythrocytes; conditions: within 2 minutes after 10 mg i.v., healthy volunteer; cited from earlier work
[6] = use as anticurare agent in anesthesiology in Eastern Block countries since around 1958; cited from earlier work
[7] = tested on: auditory evoked potentials in the brain stem; assay: Auditory brain stem response; assay type: in vivo, human
Experimental: The auditory brain stem response test is based on the observation that manio-depressive patients are hypersensitive to cholinergic influences, one manifestation hereof being hypersensitivity to auditory signals as assessed by the increase of amplitude of auditory evoked potentials in the nuclei of the auditory system in the brain stem, i.e. on the "brain side" of the blood brain barrier. […] See also example 3.
Electrical potentials caused by click-stimulation in the ears are measured with electrodes positioned outside on the head of the examined parson. In the configuration of the potentials are components from the brain stem and the brain.
A patient suffering from bipolar manio-depression in the depressive stats and a healthy person, respectively.
Tablet containing 10 mg galanthamine

[8] = tested on: persons suffering from Chronic Fatigue Syndrome; assay: Double-blind cross-over trial in Chronic Fatigue Syndrome: patient-completed visual analogue scales; assay type: in vivo, human; design: Sleep Disturbance visual analogue scale, mean / Fatigue visual analogue scale, mean / Myalgia visual analogue scale, mean / Work Capacity/Satisfaction visual analogue scale, mean / Memory visual analogue scale, mean / Dizziness visual analogue scale, mean / Sleep visual analogue scale, mean / Work visual analogue scale, mean: scale not given here
Text: as §1, §2, §3, §4
In order to assess any underlying, overall performance difference between the galanthamine and placebo treated patients, the median (the statistic which differentiates the upper and lower 50% of scores) of the changes across all scales, was computed for the placebo treated patients.

[9] = tested on: acetylcholinesterase as opposed to butyrylcholinesterase; conditions: cited from earlier work; for selectivity for acetylcholinesterase as opposed to butyrylcholinesterase: in vitro method by Thomsen et al.
[10] = tested on: persons suffering from Chronic Fatigue Syndrome; assay: Double-blind cross-over trial in Chronic Fatigue Syndrome: Cognitive Failures Questionnaire; assay type: in vivo, human
Text: as §1, §2
11 of the persons were randomly allocated to galanthamine treatment, and the remaining 9 to placebo treatment. The protocol for the trial made provisions for the clinician to opt after two weeks of treatment for transfer to the alternative treatment. […]

[11] = cited from earlier work
[12] = assay type: physicochemical; conditions: room temperature
Experimental: Galanthamine and its acid addition salts form crystals. […] If necessary, pharmaceutically-acceptable suspension aids may be employed. Typically, such a suspension will be employed at a concentration of 0.1-50 mg/ml, such as 1-50 mg/ml, more commonly 5-40 mg/ml, for example, 5-30 mg/ml or 10-40 mg/ml, such as 10-30 mg/ml, especially 20-30 mg/ml of galanthamine. As mentioned above, typical dosage rates when administering galanthamine by injection are the range 0.01-20 mg per day depending upon the patient. […] In other cases, dosages as low as 5 mg and as high as 200 mg per day may be appropriate for persons in this body weight range.

[13] = tested on: cholinesterase in hemolyzed whole blood (hemolysate); assay: Sigma Diagnostics Cholinesterase (PTC) kit, hemolysate of patient blood samples; assay type: biochemical, human; conditions: for Hemolysate ChE activity: no addition = 1.00, blood samples from 3 patients
Text: (§5) HChE=(EChE×Hct*)+(PChE×(1--Hct*))
By doing this, the values are obtained directly.
The results are shown below in table 1.1.

[14] = target: butyrylcholinesterase (pseudocholinesterase) in serum (Homo sapiens, UniProt P06276); conditions: for Serum ChE activity: no addition = 1.00, blood samples from 3 patients
Sequence of butyrylcholinesterase (pseudocholinesterase) in serum (P06276 29-602): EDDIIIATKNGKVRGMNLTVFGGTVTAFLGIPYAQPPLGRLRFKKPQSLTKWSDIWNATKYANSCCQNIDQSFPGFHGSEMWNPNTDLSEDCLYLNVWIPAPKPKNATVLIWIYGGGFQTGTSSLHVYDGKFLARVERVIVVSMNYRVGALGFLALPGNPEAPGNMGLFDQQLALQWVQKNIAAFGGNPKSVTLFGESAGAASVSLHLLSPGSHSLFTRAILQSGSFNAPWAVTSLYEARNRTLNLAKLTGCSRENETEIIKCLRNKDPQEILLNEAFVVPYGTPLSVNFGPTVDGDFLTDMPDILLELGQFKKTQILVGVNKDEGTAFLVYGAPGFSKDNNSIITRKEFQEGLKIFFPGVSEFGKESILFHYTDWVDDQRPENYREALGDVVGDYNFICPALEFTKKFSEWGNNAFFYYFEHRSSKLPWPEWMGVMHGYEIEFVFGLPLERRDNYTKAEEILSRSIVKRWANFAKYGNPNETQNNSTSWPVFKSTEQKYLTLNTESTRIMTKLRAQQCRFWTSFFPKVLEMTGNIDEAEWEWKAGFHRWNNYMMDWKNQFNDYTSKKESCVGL
Text: SIGMA DIAGNOSTICS® CHOLINESTERASE (PTC) kit, available from Sigma Diagnostics, can be used for determining the activity and selectivity of cholinesterase inhibitors. In the following, it is illustrated how the kit is used for the determination of the activity and selectivity of Nivalin (Galanthamine hydrobromide).
Reactions involved in the cholinesterase assay are as follows: [drawing 3]
Thiocholine+5,5'-Dithiobis-2-Nitrobenzoic Acid→5-Thio-2-NitrobenzoicAcid
5-Thio-2-Nitrobenzoic Acid is assessed by measuring the absorbance at 405 nm. The rate of change in absorbance at 405 nm is directly proportional to cholinesterase activity.
The activity of erythrocyte cholinesterase may be calculated on the basis of the measurement of butyrylcholinesterase (pseudocholinesterase) in serum and cholinesterase in hemolyzed whole blood (hemolysate), both measured simultaneously by the method described above, and evaluated according to the hematocrit value according to the formula
as §5
In the above formulae, EChE is erythrocyte cholinesterase activity, PChE is plasma cholinesterase activity, HChE is hemolysate cholinesterase activity, and Hct is hematocrit value of the sample.
Another way of assessing the cholinesterase activity is to measure the plasma cholinesterase and the cholinesterase in purified hemolyzed erythrocytes. By doing this, the values are obtained directly.
Blood samples from 3 patients were tested with the Sigma test. The tests were carried out with samples where no Nivalin was added and with samples where 1.25 μg/ml Nivalin and 2.5 μg/ml were added in vitro.

[15] = all galanthamine treated patients, 1 Week, N = 19
[16] = all galanthamine treated patients, 4 Weeks, N = 18
[17] = all galanthamine treated patients, 8 Weeks, N = 17
[18] = all galanthamine treated patients, Baseline, N = 19
[19] = 2 hours after 10 mg tablet, treated compared to untreated
[20] = all galanthamine treated patients, 2 Weeks, N = 19
[21] = randomly allocated to galanthamine (N=11), After 1 Week
[22] = randomly allocated to galanthamine (N=11), After 2 Weeks
[23] = randomly allocated to galanthamine (N=11), Baseline

## COc1ccc2c3c1O[C@H]1C[C@@H](O)C=C[C@@]31CCN(C)C2 [galanthamine]
[1]; 336 h
  average time per response on a visual search task, mean (standard error): 5.51 (0.43)
[1]; [15]
  average time per response on a visual search task, mean (standard error): 6.24 (0.40)
[1]; [16]
  average time per response on a visual search task, mean (standard error): 5.83 (0.40)
[1]; [17]
  average time per response on a visual search task, mean (standard error): 5.25 (0.31)
[1]; [18]
  average time per response on a visual search task, mean (standard error): 6.79 (0.36)
[2]
  inhibition of butyrylcholinesterase in plasma: no inhibition
[3]
  patients transferred by the clinician to the alternative treatment (failed to benefit): 1/11
[4]; disappearing after about one week of treatment
  slight nausea, share of cases: about 30%
[4]; disappearing after about one week of treatment in most cases
  vomiting and dizziness, share of patients: 5-10%
[4]; human, in vivo
  more severe side effects, share of patients: 4-6%
[5]
  inhibition of acetylcholinesterase in the erythrocytes: 65%
[6]
  liver toxicity or serious side effects: without any reported case of liver toxicity or serious side effects
[7]; [19]
  amplitude of auditory brain stem response, depressive patient: dramatically increase of the amplitude
  auditory brain stem response potentials, healthy person: potentials do not change
[7]; concluded from change of potentials in the depressed person
  ability to cross the blood-brain barrier: must be able to cross the blood-brain barrier
[8]; [15]
  Dizziness visual analogue scale, mean: 8.96
  Fatigue visual analogue scale, mean: 26.63
  Memory visual analogue scale, mean: 5.41
  Myalgia visual analogue scale, mean: 14.25
  Sleep visual analogue scale, mean: 17.26
  Work visual analogue scale, mean: 10.22
[8]; [20]
  Dizziness visual analogue scale, mean: 6.94
  Fatigue visual analogue scale, mean: 20.64
  Memory visual analogue scale, mean: 4.79
  Myalgia visual analogue scale, mean: 11.24
  Sleep visual analogue scale, mean: 15.51
  Work visual analogue scale, mean: 8.21
[8]; [16]
  Dizziness visual analogue scale, mean: 6.30
  Fatigue visual analogue scale, mean: 17.42
  Memory visual analogue scale, mean: 4.33
  Myalgia visual analogue scale, mean: 12.01
  Sleep visual analogue scale, mean: 11.89
  Work visual analogue scale, mean: 7.40
[8]; [17]
  Dizziness visual analogue scale, mean: 4.77
  Fatigue visual analogue scale, mean: 17.81
  Memory visual analogue scale, mean: 4.50
  Myalgia visual analogue scale, mean: 10.51
  Sleep visual analogue scale, mean: 10.88
  Work visual analogue scale, mean: 7.34
[8]; [18]
  Dizziness visual analogue scale, mean: 8.39
  Fatigue visual analogue scale, mean: 28.00
  Memory visual analogue scale, mean: 5.10
  Myalgia visual analogue scale, mean: 16.32
  Sleep visual analogue scale, mean: 19.45
  Work visual analogue scale, mean: 9.21
[8]; first two weeks of treatment, across all scales, exact p=0.033
  galanthamine treated patients changes on the analogue scales that fall above the placebo median: 68.18%
[8]; [21]
  Dizziness visual analogue scale, mean: 9.00
  Fatigue visual analogue scale, mean: 29.76
  Memory visual analogue scale, mean: 5.89
  Myalgia visual analogue scale, mean: 15.95
  Sleep Disturbance visual analogue scale, mean: 17.90
  Work Capacity/Satisfaction visual analogue scale, mean: 11.61
[8]; [22]
  Dizziness visual analogue scale, mean: 8.79
  Fatigue visual analogue scale, mean: 25.21
  Memory visual analogue scale, mean: 5.62
  Myalgia visual analogue scale, mean: 13.58
  Sleep Disturbance visual analogue scale, mean: 18.42
  Work Capacity/Satisfaction visual analogue scale, mean: 9.64
[8]; [23]
  Dizziness visual analogue scale, mean: 9.05
  Fatigue visual analogue scale, mean: 29.41
  Memory visual analogue scale, mean: 5.31
  Myalgia visual analogue scale, mean: 17.58
  Sleep Disturbance visual analogue scale, mean: 20.78
  Work Capacity/Satisfaction visual analogue scale, mean: 9.43
[9]
  selectivity for acetylcholinesterase as opposed to butyrylcholinesterase: about 50 fold
[9]; ratio, as reported by Thomsen, Life Sciences 46
  in vitro selectivity for acetylcholinesterase opposed the effect on butyrylcholinesterase: 50 to 1
[10]; 672 h
  Cognitive Failures Questionnaire, mean (standard error): 40.94 (3.87)
[10]; [17]
  Cognitive Failures Questionnaire, mean (standard error): 38.47 (3.71)
[10]; [18]
  Cognitive Failures Questionnaire, mean (standard error): 47.74 (3.56)
[11]; in vivo
  time to complete elimination of metabolites and galanthamine: 72 h
[11]; warranted by elimination half life, probably at least 6 hours
  duration of an effective concentration: at least 4 hours
[12]
  solubility in water: only sparingly soluble

## COc1ccc2c3c1O[C@H]1C[C@@H](O)C=C[C@@]31CCN(C)C2 [galanthamine hydrobromide, Galanthamine hydrobromide]
[13]; 1.25 μg/ml added in vitro
  Hemolysate ChE activity: 0.96
[13]; 2.50 μg/ml added in vitro
  Hemolysate ChE activity: 0.86
[13]; in words
  change of hemolysate cholinesterase activity with increased concentration: significant reduction
[14]; 1.25 μg/ml added in vitro
  Serum ChE activity: 0.98
[14]; 2.50 μg/ml added in vitro
  Serum ChE activity: 0.97
[14]; in words
  change of serum cholinesterase activity on addition: do not show any statistically significant change
[9]; hydrobromide
  selectivity for acetylcholinesterase as opposed to butyrylcholinesterase: 50 fold
[11]; in vivo
  elimination half life: over four
[11]; in words
  absorption from the gut: absorbed rapidly from the gut
  passage of the blood brain barrier: transverses the blood brain barrier easily
  renal elimination: practically complete renal elimination
